Reference: patent publication US20130165520A1, “Hybrid Molecule Having Mixed Retinoic Acid Receptor Agonism and Histone Deacetylase Inhibitory Properties” (priority 2010, published 2013)

How the values were obtained:
HOP-62 [1] = conditions: HOP-62 (Non-Small cell lung cancer); 48 h
A549/ATCC = A549/ATCC (Non-Small cell lung cancer); 48 h
786-0 = experiment: cells; conditions: Homo sapiens, 786-0, 48 h
SF-295 = experiment: cells; conditions: Homo sapiens, SF-295, 48 h
[2] = system: NCI-60 panel of human tumor cell lines; experiment: NCI-60 in vitro cancer screen (SRB), whole panel; type: cell-based; conditions: all cell lines, read-out: GC-50 values, range over all cell lines
Method: Both RARs and HDACs are ubiquitously expressed in cell lines and tissue. It was therefore surmised that hybrid 3 could display cytotoxic activities in a wide variety of cell lines.
The human tumor cell lines of the cancer screening panel are grown in RPMI 1640 medium containing 5% fetal bovine serum and 2 mM L-glutamine. For a typical screening experiment, cells are inoculated into 96 well microtiter plates in 100 μL at plating densities ranging from 5,000 to 40,000 cells/well depending on the doubling time of individual cell lines. After cell inoculation, the microtiter plates are incubated at 37° C., 5% CO2, 95% air and 100% relative humidity for 24 h prior to addition of experimental drugs. […]
Following drug addition, the plates are incubated for an additional 48 h at 37° C., 5% CO2, 95% air, and 100% relative humidity. […] Bound stain is subsequently solubilized with 10 mM trizma base, and the absorbance is read on an automated plate reader at a wavelength of 515 nm. […] Using the absorbance measurements [time zero, (Tz), control growth, (C), and test growth in the presence of drug at the five concentration levels (Ti)], the percentage growth is calculated at each of the drug concentration levels. Percentage growth inhibition is calculated as: [(Ti-Tz)/(C-Tz)]×100 for concentrations for which Ti>/=Tz; and [(Ti-Tz)/Tz]×100 for concentrations for which Ti<Tz. […]

SK-MEL-5 = experiment: cells; conditions: Homo sapiens, SK-MEL-5, 48 h
[3] = system: RAR target genes in MDA-MB-231 cell line; experiment: RT-qPCR analysis of RAR and HDACi target genes; type: cell-based
Text: The agonist activity of 3 through its effects on RAR target genes was subsequently analyzed (FIG. 3).

HT29 [4] = experiment: cells; conditions: Homo sapiens, HT-29, 48 h
BT-549 [5] = experiment: cells; conditions: Homo sapiens, BT-549, 48 h
TK-10 = experiment: cells; conditions: Homo sapiens, TK-10, 48 h
KM12 = KM12 (Colon); 48 h
[6] = system: non-tumorogenic immortalized mammary 184b5 cells; experiment: Cell growth measurement
HOP-62 [7] = experiment: cells; conditions: Homo sapiens, HOP-62, 48 h
HT29 [8] = conditions: HT29 (Colon); 48 h
U251 = U251 (CNS); 48 h
BT-549 [9] = conditions: BT-549 (Breast); 48 h
HCC-2998 = HCC-2998 (Colon); 48 h
HOP-92 = experiment: cells; conditions: Homo sapiens, HOP-92, 48 h
SR = SR (Leukemia); 48 h

## CC1(C)CCC(C)(C)c2cc(-c3ccc4cc(C(=O)NO)ccc4c3)ccc21 [hybrid 3]
HOP-62 [1]
  TGI: 2190 nM
A549/ATCC
  TGI: 2150 nM
786-0
  GI50: 1100 nM
786-0; read-out: LC50
  CC50: 5120 nM
SF-295
  GI50: 385 nM
SF-295; read-out: LC50
  CC50: 6110 nM
[2]
  IC50: 302 to 4300 nM
SK-MEL-5
  GI50: 977 nM
SK-MEL-5; read-out: LC50
  CC50: 5370 nM
[3]; MDA-MB-231
  regulation of HDACi-regulated genes RARB1 and CyclinD1: follow similar regulation
[3]; MDA-MB-231 cell line
  induction of RAR target genes (RT-qPCR): clear induction of RARB2 and DHRS3
HT29 [4]
  GI50: 575 nM
HT29 [4]; read-out: LC50
  CC50: 7600 nM
BT-549 [5]
  GI50: 1420 nM
BT-549 [5]; read-out: LC50
  CC50: 19700 nM
TK-10
  GI50: 1100 nM
TK-10; read-out: LC50
  CC50: 25000 nM
KM12
  TGI: 1880 nM
[6]
  effect on growth of non-tumorogenic cells: only minimal effects
HOP-62 [7]
  GI50: 616 nM
HOP-62 [7]; read-out: LC50
  CC50: 6180 nM
HT29 [8]
  TGI: 2340 nM
U251
  TGI: 1690 nM
BT-549 [9]
  TGI: 4810 nM
HCC-2998
  TGI: 2510 nM
HOP-92
  GI50: 1930 nM
HOP-92; read-out: LC50
  CC50: 27200 nM
SR
  TGI: 1200 nM
